{
  "source": "patent US20100098691A1",
  "about": "“COMBINATION OF BENZIMIDAZOLE ANTI-CANCER AGENT AND A SECOND ANTI-CANCER AGENT” (S'BIO PTE LTD, priority 2001, published 2010)",
  "key": {"H460 (lung)": {"system": "H460 (lung)", "assay": "Human xenograft model, tumor growth inhibition", "type": "in vivo, female athymic nude mice", "procedure": "To assess in vivo antitumor activity in human xenograft models, female athymic nude mice, 12 to 14 weeks of age, were implanted subcutaneously in the flank with human cancer cells. When the tumors reached approximately 100 mm^3 in size, the mice were pair-matched into various treatment groups. For oral administration, compounds were dissolved in a mixture of 0.5% methylcellulose and 0.1% Tween 80 and administered by gavage to the tumor-bearing mice. For i.v.andi.p..administration, compounds were dissolved in 0.9% NaCl and for the i.v. administration, the compound was administered via the tail vein.\nPercent tumor growth inhibition (% TGI) was calculated as\n% TGI=(Cday a−Tday a)/(Cday a−Cday 1)×100\nWhere C is the median tumor volume of the control group, T is the median tumor volume of the treatment group, and day a is the day of assessment."}, "HCT 116 (colon)": {"system": "HCT 116 (colon)", "assay": "Human xenograft model, tumor growth inhibition", "type": "in vivo, female athymic nude mice", "details": "vehicle (Tw/MC) po qd × 14 + 5FU 50 mg/kg iv D1, 8, 15", "protocol": "The TGI assessment, the treatment-induced decreases in tumor volume on day 21 of various treatment groups were compared to controls. Percent tumor growth inhibition (% TGI) was calculated as"}},
  "data": [
    {"smiles": "CCCCc1nc2cc(/C=C/C(=O)NO)ccc2n1CCN(CC)CC", "note": "[Compound A8, 3-[2-Butyl-1-(2-diethylamino-ethyl)-1H-benzimidazol-5-yl]-N-hydroxy-acrylamide]", "values": [
      {"measurement": "% TGI at Day 15", "setting": "H460 (lung); A8 50 mg/kg po qd × 14 d", "result": 33, "unit": "%"},
      {"measurement": "% TGI at Day 15", "setting": "H460 (lung); A8 75 mg/kg po D1-3, D8-10", "result": 14, "unit": "%"}
    ]},
    {"smiles": "N.N.O=C([O-])C1(C(=O)[O-])CCC1.[Pt+2]", "note": "[carboplatin, Carboplatin]", "values": [
      {"measurement": "% TGI at Day 15", "setting": "H460 (lung); carboplatin 30 mg/kg ip D1, 8", "result": 29, "unit": "%"}
    ]},
    {"smiles": "O=c1[nH]cc(F)c(=O)[nH]1", "note": "[Compound 5FU, Fluorouracil]", "values": [
      {"measurement": "% TGI at Day 15", "setting": "HCT 116 (colon)", "result": 34, "unit": "%"}
    ]},
    {"smiles": "Nc1ccn([C@@H]2O[C@H](CO)[C@@H](O)C2(F)F)c(=O)n1", "note": "[gemcitabine, Gemcitabine]", "values": [
      {"measurement": "% TGI at Day 15", "setting": "H460 (lung); gemcitabine 80 mg/kg ip D1, 5, 9, 13 + vehicle po qd × 14 d", "result": 36, "unit": "%"}
    ]}
  ]
}
